Results taken from PubChem BioAssay AID686961 (Sanford-Burnham Center for Chemical Genomics, 2013).
Activity calls are given as the source filed them.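 How the source made its calls: active means IC50 at or below 20 µM; inactive means the rest.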

Molecular target: Dual specificity protein phosphatase 3 (Homo sapiens) (UniProt P51452)
Experiment: VHR-1 phosphatase inhibitors, dose response, selectivity assay for LMPTP inhibitor project, biochemical, fluorescence, OMFP substrate (AID 686961)
Details: recombinant VHR-1 enzyme, OMFP fluorogenic substrate, 50 min

Dual specificity protein phosphatase 3 (Homo sapiens), sequence (P51452 whole entry, looked up): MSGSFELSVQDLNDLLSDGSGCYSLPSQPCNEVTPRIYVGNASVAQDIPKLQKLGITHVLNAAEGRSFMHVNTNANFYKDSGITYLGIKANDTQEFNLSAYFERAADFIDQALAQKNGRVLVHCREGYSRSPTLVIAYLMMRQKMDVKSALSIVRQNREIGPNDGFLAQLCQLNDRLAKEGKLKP

IC50 | SMILES
> 80 µM (inactive) | CNc1nc(NC)c2cn[nH]c2n1
> 80 µM (inactive) | Cc1cccc2nc(-c3ccccc3)nc(N[C@@H](CO)c3ccccc3)c12
2.63 µM | CCOC(=O)C1=C(C)N=c2sc(=Cc3ccc(OCC(=O)O)cc3)c(=O)n2C1c1ccc(Cl)cc1 (stereo unspecified)
1.59 µM | O=C(Nc1ccc2oc(-c3ccccc3F)nc2c1)c1ccc([N+](=O)[O-])o1
2.01 µM | O=C(NNC(=O)c1cc2cc3ccccc3nc2s1)c1cccc(Cl)c1
inactive | Cc1c(CCC(=O)O)c(=O)oc2c(C)c(OCc3ccccc3Cl)ccc12
12.5 µM | c1ccc(-c2cc(NCCN3CCCCC3)c3ccccc3n2)cc1
2.41 µM | COc1cccc2c1[C@@H]1CN(CCCCn3c(=O)[nH]c4c(sc5ncc(-c6ccccc6)nc54)c3=O)C[C@@H]1CO2
0.4 µM | CCOC(=O)Cn1c(=NC(=O)c2sc3ccccc3c2Cl)sc2cc(S(N)(=O)=O)ccc21
> 80 µM (inactive) | O=C(OCCNc1nc(-c2ccccc2)nc2ccccc12)c1ccncc1
5.41 µM | Cc1c(CCC(=O)O)c(=O)oc2c(C)c3occ(-c4ccc(Cl)cc4)c3cc12
0.7 µM | O=C(CCCOc1ccc(Cl)cc1Cl)NNC(=O)c1ccc(NC(=O)c2ccccc2)cc1
inactive | COCCNc1nc(NCc2cccc(OC)c2OC)c2sccc2n1
> 80 µM (inactive) | Fc1ccccc1-c1nc(NCCCN2CCOCC2)c2ccccc2n1
10.5 µM | O=C(/C=C/c1ccc(Br)cc1)NC(=O)c1ccccc1O
5.71 µM | O=C(COc1ccc(/C=N/NC(=O)c2ccc(O)cc2)cc1)Nc1cccc([N+](=O)[O-])c1
2.9 µM | Cc1cc2oc(=O)cc(-c3cc4ccccc4o3)c2cc1O
> 80 µM (inactive) | Cc1[nH]ccc(=O)c1Cc1c(Cl)cccc1Cl
1.4 µM | NS(=O)(=O)c1ccc(CNC(=O)Cc2cccs2)cc1
1.27 µM | Cc1ccc(-c2nc(NC(=O)CSc3cc(C)c4ccccc4n3)ns2)cc1
5.57 µM | O=C(N/N=C/c1ccc(OC(=O)c2cccs2)cc1)c1cccc(F)c1
inactive | Clc1cccc(Cl)c1Cn1cnc(=NCc2ccco2)c2[nH]cnc21
9.27 µM | CC(=O)Nc1ccc(CNc2nc(NCc3cccs3)nc3ccsc23)cc1
0.91 µM | CC1C(=O)N(Cc2cn(Cc3ccco3)nn2)CCS(=O)(=O)N1Cc1ccc(-c2cccnc2)cc1 (stereo unspecified)

IC50 | SMILES
5.57 µM | O=c1cc(-c2cc3ccccc3o2)c2cc(O)ccc2o1
3.92 µM | COc1ccc(Nc2nc(=O)c3cc([N+](=O)[O-])ccc3s2)cc1
inactive | CC(C)Oc1ccc(-c2nc(NCC3CCCO3)c3ccccc3n2)cc1 (stereo unspecified)
inactive | COc1ccccc1CNc1nc(NCc2cnc(C)cn2)c2sccc2n1
11.1 µM | O=C(N/N=C/c1cccc(Br)c1)c1ccc(Br)cc1
inactive | CC(C)OCCCNc1nc(-c2ccccc2)nc2ccccc12
12.1 µM | CC(=O)Nc1ccc(S(=O)(=O)N2CCN(c3nc(NC4CCCC4)c4ccccc4n3)CC2)cc1
> 80 µM (inactive) | c1ccc(-c2nc(NCCCN3CCOCC3)c3ccccc3n2)cc1
inactive | Cc1cc(N2CCN(S(=O)(=O)c3ccc(Cl)c(Cl)c3)CC2)c2ccccc2n1
19.5 µM | Cc1cc(N2CCC(C)CC2)nc2cccc(O)c12
> 80 µM (inactive) | c1ccc(-c2cc(N3CCCCC3)c3ccccc3n2)cc1
inactive | Fc1ccccc1-c1nc(NC2CCCC2)c2ccccc2n1
13 µM | O=C(CCN1C(=O)/C(=C/c2ccc3c(c2)OCO3)SC1=S)Nc1ccc(C(=O)O)cc1
2.29 µM | O=C(/C=C/c1ccccc1Cl)Nc1ccc2c(c1)C(=O)NC2=O
inactive | CCc1nc(N)nc(N)c1-c1ccc(Cl)c(N=[N+]=[N-])c1
> 80 µM (inactive) | Cc1ccc(-c2nc(NCCN3CCOCC3)c3ccccc3n2)cc1
1.97 µM | O=C(N/N=C/c1ccc(Br)s1)c1cccc([N+](=O)[O-])c1
> 80 µM (inactive) | Cc1cccc(-c2nc(NCCCN3CCOCC3)c3ccccc3n2)c1
1.83 µM | CCOC(=O)C1=C(C)N=c2sc(=Cc3ccc(OCC(=O)O)cc3)c(=O)n2C1c1ccc(SC)cc1 (stereo unspecified)
> 80 µM (inactive) | CCc1nc(N)nc(N)c1-c1ccc(Cl)cc1
> 80 µM (inactive) | Cc1ccccc1Nc1cc(C)c2c(O)cccc2n1
9.62 µM | COc1ccc(-c2ccc(/C=N/NC(=O)c3cccnc3)o2)c([N+](=O)[O-])c1
1.49 µM | NC(=O)Cc1ccc(C(=O)CSc2nnc(-c3ccncc3)n2C2CC2)s1
5.64 µM | COc1ccccc1CNc1nc(NCc2ccc(NC(C)=O)cc2)c2sccc2n1

IC50 | SMILES
1.63 µM | O=C(N/N=C\C=C\c1ccc(Br)cc1)c1ccc2c(c1)OCO2
3.82 µM | CCCCC(=O)Nc1ccc(C(=O)NNC(=O)c2ccc(C)c(Br)c2)cc1
inactive | Cc1ccc(-c2nc(NCc3cccnc3)c3ccccc3n2)cc1
12.4 µM | COc1cccc(N2CCN(C(=O)c3ccc(CSc4nc5ccncc5[nH]4)cc3)CC2)c1
0.55 µM | O=C1C(=Cc2cn(-c3ccccc3)nc2-c2ccc(OCc3ccccc3)cc2)SC(=S)N1CCS(=O)(=O)O
5.89 µM | CCOC(=O)c1cc(-c2ccc(N3CCOCC3)cc2)nn1-c1ccccc1C(=O)O
> 80 µM (inactive) | CN(C)c1nc(N)nc(/C(C#N)=C/C2CC3C=CC2C3)n1 (stereo unspecified)
inactive | NS(=O)(=O)c1ccc(CCNC(=O)c2ccc3nccnc3c2)cc1
> 80 µM (inactive) | c1ccc(-c2nc(NCCCn3ccnc3)c3ccccc3n2)cc1
10.8 µM | CCc1nc(N)nc(N)c1-c1ccc(NCCN)c([N+](=O)[O-])c1
inactive | Nc1nc(N)c(Cc2ccc(Cl)cc2Cl)c(N)n1
17.6 µM | Cc1[nH]ccc2cc3nc4ccccc4c3cc12
3.31 µM | CCOc1cc(/C=N/N=C2/NC(=O)C(CC(=O)O)S2)ccc1OCc1ccc(Cl)cc1Cl (stereo unspecified)
14.3 µM | COc1cccc(CNc2nc(NCC3CC3)nc3ccsc23)c1OC
inactive | CN1/C(=C/C=C/c2n(C)c3cc([N+](=O)[O-])c([N+](=O)[O-])cc3[n+]2C)C(C)(C)c2ccccc21
12.4 µM | COc1ccc(Nc2nc(NCc3cccs3)nc3ccsc23)cc1OC
12.4 µM | N=c1c(C(=O)NCc2ccc3c(c2)OCO3)cc2c(=O)n3ccccc3nc2n1Cc1cccnc1
2.05 µM | CCN(c1ccccc1)S(=O)(=O)c1cc(C(=O)O)ccc1C
> 80 µM (inactive) | c1ccc(-c2nc(NCc3cccnc3)c3ccccc3n2)cc1
> 80 µM (inactive) | O=C(OCCNc1nc(-c2ccccc2)nc2ccccc12)c1cccnc1
6.01 µM | C/C(=N\NC(=O)c1ccc(OC2OCCOC2Oc2ccc(C(=O)N/N=C(\C)c3ccncc3)cc2)cc1)c1ccncc1 (stereo unspecified)
> 80 µM (inactive) | Cc1nc(N)nc(N)c1-c1ccc([N+](=O)[O-])cc1
1.38 µM | CC(Nc1nc(N2CCNCC2)nc2ccccc12)c1ccccc1 (stereo unspecified)
